{"source": "patent US20240141414A1", "about": "“CELL-FREE BIOSENSORS WITH DNA STRAND DISPLACEMENT CIRCUITS” (Northwestern University, priority 2021, published 2024)", "format_in_all_cases": "biochemical", "key": {"TtgR": {"target": "T1, TtgR (Pseudomonas putida, UniProt Q88N29)", "T1 construct": "made in house; host or cells: E. coli Rosetta 2(DE3)pLysS, pET-28c plasmid (pJBL721)", "T1 sequence (Q88N29 other isoform, or with tags, fused parts or gaps)": "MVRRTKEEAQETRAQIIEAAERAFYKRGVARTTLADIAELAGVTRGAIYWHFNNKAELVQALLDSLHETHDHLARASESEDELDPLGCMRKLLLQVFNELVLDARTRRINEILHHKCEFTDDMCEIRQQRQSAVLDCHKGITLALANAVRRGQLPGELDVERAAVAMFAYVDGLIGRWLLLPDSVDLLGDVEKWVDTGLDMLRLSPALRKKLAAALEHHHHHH", "assay": "TtgR-regulated in vitro transcription with TMSD fluorescence output", "details": "TtgR-regulated reactions, with and without ligand", "protocol": "(§1) In addition to TetR, we chose TtgR [44] and SmtB [45] as representative aTFs of the MarR family and SmtB/ArsR family, respectively. We placed the cognate operator sequence of each aTF 2-bp downstream of the T7 promoter and immediately upstream of the InvadeR sequences (FIG. 4a-c). When tetracycline was used to induce TetR-regulated reactions, we observed a strong and robust fluorescent signal visible in ˜10 minutes (FIG. 4d, FIG. 13a). […] We note that we observed a slight decrease in the induction speed from the TtgR-regulated reactions compared to that of the TetR-regulated reactions, likely due to the reduced ttgO DNA template concentration needed to accommodate TtgR's relatively weak binding affinity to its operator sequence.\n(§2) Regulated IVT reactions additionally included a purified aTF at the indicated concentration and were equilibrated at 37° C. for ˜10 minutes. Immediately prior to plate reader measurements, 2 ng of T7 RNAP and, optionally, a ligand at the indicated concentration were added to the reaction. Reactions were then characterized on a plate reader as described in Plate reader quantification and micromolar equivalent fluorescein (MEF) standardization."}, "SmtB": {"target": "T2, SmtB (Synechococcus elongatus, UniProt P30340)", "T2 construct": "6xHis (C); made in house; host or cells: E. coli Rosetta 2(DE3)pLysS, pET-28c plasmid (pJBL725)", "T2 sequence (P30340 with tags, fused parts or gaps)": "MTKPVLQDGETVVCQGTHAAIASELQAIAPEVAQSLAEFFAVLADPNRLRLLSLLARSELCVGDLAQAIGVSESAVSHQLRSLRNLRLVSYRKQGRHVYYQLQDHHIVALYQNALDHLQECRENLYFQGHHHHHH", "assay": "SmtB-regulated in vitro transcription with TMSD fluorescence output", "details": "SmtB-regulated reaction, optimized smtO-Hairpin2-InvadeR design", "protocol": "as §1\nWe were immediately successful in adapting the system to TetR and TtgR (FIG. 4a, b). […]\nas §2"}, "TetR": {"target": "T3, TetR (Escherichia coli, UniProt P04483)", "T3 construct": "made in house; host or cells: E. coli Rosetta 2(DE3)pLysS, pET-28c plasmid (pJBL701)", "source_text": "Next, we sought to determine whether the transcription of InvadeR can be regulated with an aTF, thus creating a ligand-responsive biosensor that uses TMSD outputs. This required us to insert an aTF operator sequence in between the T7 promotor and InvadeR sequence to allow an aTF to regulate transcription. […] To test if this spacing remained important in the TMSD platform, we used TetR as our model aTF to determine the optimum spacing for efficient repression in the presence of TetR and efficient transcription in the absence of TetR [41]. […] However, robust fluorescence signal was observed without TetR when using a 2-bp spacer, which was reduced to nearly baseline levels when regulated by TetR. […]\nUsing the 2-bp spacer, we next determined whether TetR can be de-repressed with its cognate ligand, anhydrotetracycline (aTc) to allow transcription of InvadeR (FIG. 3c). […]\nas §2"}}, "data": [{"smiles": "O=C1C[C@@H](c2ccc(O)cc2)Oc2cc(O)cc(O)c21", "note": "[naringenin]", "values": [{"measurement": "fluorescence activation by ligand", "setting": "TtgR", "result": "robust fluorescence activation only in the presence of the ligand"}]}, {"smiles": "O=S(=O)([O-])[O-].[Zn+2]", "note": "[ZnSO4]", "values": [{"measurement": "fluorescence activation by ligand", "setting": "SmtB", "result": "clear activation of a SmtB-regulated reaction in the presence of ZnSO4 with low background signal"}]}, {"smiles": "Cc1c2c(c(O)c3c(O)cccc13)C(=O)[C@]1(O)C(=O)C(C(N)=O)=C(O)[C@@H](N(C)C)[C@@H]1C2", "note": "[aTc, anhydrotetracycline]", "values": [{"measurement": "time until fluorescence is visible", "setting": "TetR; TetR-regulated InvadeR output induced with the ligand (aTc 10 μM)", "result": "~10", "unit": "min"}, {"measurement": "speed of fluorescence activation relative to the RNA aptamer platform", "setting": "TetR; equimolar amounts of DNA template, TetR and aTc", "result": "approximately 5 times"}]}]}
